Our source for the IC50 values is patent US20250059180A1 (DONG WHA PHARM. CO., LTD., priority 2022, published 2025).

The assay has as its system Pfeiffer cells, lymphoma cells having EZH2 mutation (A677G). Briefly: Proliferation inhibition of cells of hematologic malignancies (CCK-8, 11 days). To be noted: 11 days culture, read-out: Cell proliferation inhibitory effect (IC50). The class given is cell-based. On the procedure:
The growth inhibitory activity of 1,3-benzodioxole derivative compounds represented by chemical formula I of the present invention against Pfeiffer cells, which are lymphoma cells having EZH2 mutation (A677G), was evaluated.
Pfeiffer was cultured using RPMI1640 containing 10% fetal bovine serum. The cells were inoculated into wells of a 96-well culture dish at 10,000 cells each, and cultured for 11 days after treating with the test material for each concentration. For 11 days, the test material was replaced every three to four days. After culturing, the cells were treated with a cell counting kit-8 (CCK-8) reagent for each well, absorbance was measured at 450 nm, and IC50 values for cell proliferation were obtained through curve fitting of non-linear regression in the GraphPad program (GraphPad Prism 5.0 software).

The structures appear in SMILES notation. Like-named read-outs stand apart in the source and are kept apart here. Some results are limits rather than exact numbers.

As to `CSc1cc(C)[nH]c(=O)c1CNC(=O)c1cc(-c2ccc(N3CCOCC3)nc2)c2c(c1C)OC(C)(C1CCN(CC(F)F)CC1)O2` (single isomer, unassigned) [Compound 64, 2-(1-(2,2-difluoroethyl)piperidin-4-yl)-2,4-dimethyl-N-((6-methyl-4-(methylthio)-2-oxo-1,2-dihydropyridin-3-yl)methyl)-7-(6-morpholinopyridin-3-yl)benzo[d][1,3]dioxole-5-carboxamide], the IC50 is ≤ 10 nM.

On to `CSc1cc(C)[nH]c(=O)c1CNC(=O)c1cc(-c2ccc(N3CCOCC3)nc2)c2c(c1C)OC(C)(C1CCN(CC(F)F)CC1)O2` (single isomer, unassigned) [Compound 65, 2-(1-(2,2-difluoroethyl)piperidin-4-yl)-2,4-dimethyl-N-((6-methyl-4-(methylthio)-2-oxo-1,2-dihydropyridin-3-yl)methyl)-7-(6-morpholinopyridin-3-yl)benzo[d][1,3]dioxole-5-carboxamide], for which the IC50 is ≥ 100 nM.

For the molecule `CCN1CCC(C2(C)Oc3c(-c4ccc(N5CCOCC5)nc4)cc(C(=O)NCc4c(SC)cc(C)[nH]c4=O)c(C)c3O2)CC1` (single isomer, unassigned) [Compound 66, 2-(1-ethylpiperidin-4-yl)-2,4-dimethyl-N-((6-methyl-4-(methylthio)-2-oxo-1,2-dihydropyridin-3-yl)methyl)-7-(6-morpholinopyridin-3-yl)benzo[d][1,3]dioxole-5-carboxamide], the IC50 was ≤ 10 nM.

Take `CCN1CCC(C2(C)Oc3c(-c4ccc(N5CCOCC5)nc4)cc(C(=O)NCc4c(SC)cc(C)[nH]c4=O)c(C)c3O2)CC1` (single isomer, unassigned) [Compound 67, 2-(1-ethylpiperidin-4-yl)-2,4-dimethyl-N-((6-methyl-4-(methylthio)-2-oxo-1,2-dihydropyridin-3-yl)methyl)-7-(6-morpholinopyridin-3-yl)benzo[d][1,3]dioxole-5-carboxamide]: the IC50 was ≥ 100 nM.

Regarding `CSc1cc(C)[nH]c(=O)c1CNC(=O)c1cc(-c2cnc(N3CCOCC3)nc2)c2c(c1C)OC(C)(C1CCN(CC(F)F)CC1)O2` (single isomer, unassigned) [Compound 71, 2-(1-(2,2-difluoroethyl)piperidin-4-yl)-2,4-dimethyl-N-((6-methyl-4-(methylthio)-2-oxo-1,2-dihydropyridin-3-yl)methyl)-7-(2-morpholinopyrimidin-5-yl)benzo[d][1,3]dioxole-5-carboxamide], the IC50 is ≤ 10 nM.

`CSc1cc(C)[nH]c(=O)c1CNC(=O)c1cc(-c2cnc(N3CCOCC3)nc2)c2c(c1C)OC(C)(C1CCN(CC(F)F)CC1)O2` (single isomer, unassigned) [Compound 72, 2-(1-(2,2-difluoroethyl)piperidin-4-yl)-2,4-dimethyl-N-((6-methyl-4-(methylthio)-2-oxo-1,2-dihydropyridin-3-yl)methyl)-7-(2-morpholinopyrimidin-5-yl)benzo[d][1,3]dioxole-5-carboxamide]: the IC50 is ≥ 100 nM.

As to `CCN1CCC(C2(C)Oc3c(-c4cnc(N5CCOCC5)nc4)cc(C(=O)NCc4c(SC)cc(C)[nH]c4=O)c(C)c3O2)CC1` (single isomer, unassigned) [Compound 73, 2-(1-ethylpiperidin-4-yl)-2,4-dimethyl-N-((6-methyl-4-(methylthio)-2-oxo-1,2-dihydropyridin-3-yl)methyl)-7-(2-morpholinopyrimidin-5-yl)benzo[d][1,3]dioxole-5-carboxamide], the IC50 was ≤ 10 nM.

As for `CCN1CCN(c2ncc(-c3cc(C(=O)NCc4c(SC)cc(C)[nH]c4=O)c(C)c4c3OC(C)(C3CCN(CC(F)(F)F)CC3)O4)cn2)CC1` (single isomer, unassigned) [Compound 76, 7-(2-(4-ethylpiperazin-1-yl)pyrimidin-5-yl)-2,4-dimethyl-N-((6-methyl-4-(methylthio)-2-oxo-1,2-dihydropyridin-3-yl)methyl)-2-(1-(2,2,2-trifluoroethyl)piperidin-4-yl)benzo[d][1,3]dioxole-5-carboxamide], the IC50 is ≤ 10 nM.

Regarding `CCN1CCN(c2ncc(-c3cc(C(=O)NCc4c(SC)cc(C)[nH]c4=O)c(C)c4c3OC(C)(C3CCN(CC(F)(F)F)CC3)O4)cn2)CC1` (single isomer, unassigned) [Compound 77, 7-(2-(4-ethylpiperazin-1-yl)pyrimidin-5-yl)-2,4-dimethyl-N-((6-methyl-4-(methylthio)-2-oxo-1,2-dihydropyridin-3-yl)methyl)-2-(1-(2,2,2-trifluoroethyl)piperidin-4-yl)benzo[d][1,3]dioxole-5-carboxamide], the IC50 is ≥ 100 nM.

For `CCN(C)c1ncc(-c2cc(C(=O)NCc3c(SC)cc(C)[nH]c3=O)c(C)c3c2OC(C)(C2CCN(CC(F)F)CC2)O3)cn1` (single isomer, unassigned) [Compound 81, 2-(1-(2,2-difluoroethyl)piperidin-4-yl)-7-(2-(ethyl(methyl)amino)pyrimidin-5-yl)-2,4-dimethyl-N-((6-methyl-4-(methylthio)-2-oxo-1,2-dihydropyridin-3-yl)methyl)benzo[d][1,3]dioxole-5-carboxamide], the IC50 (Homo sapiens, Pfeiffer, 264 h) is ≤ 10 nM.

On to `CCN(C)c1ncc(-c2cc(C(=O)NCc3c(SC)cc(C)[nH]c3=O)c(C)c3c2OC(C)(C2CCN(CC(F)F)CC2)O3)cn1` (single isomer, unassigned) [Compound 82, 2-(1-(2,2-difluoroethyl)piperidin-4-yl)-7-(2-(ethyl(methyl)amino)pyrimidin-5-yl)-2,4-dimethyl-N-((6-methyl-4-(methylthio)-2-oxo-1,2-dihydropyridin-3-yl)methyl)benzo[d][1,3]dioxole-5-carboxamide], for which the IC50 is 10 to 100 nM.

Consider `CCN1CCC(C2(C)Oc3c(-c4cnc(N(C)CC)nc4)cc(C(=O)NCc4c(SC)cc(C)[nH]c4=O)c(C)c3O2)CC1` (single isomer, unassigned) [Compound 83, 7-(2-(ethyl(methyl)amino)pyrimidin-5-yl)-2-(1-ethylpiperidin-4-yl)-2,4-dimethyl-N-((6-methyl-4-(methylthio)-2-oxo-1,2-dihydropyridin-3-yl)methyl)benzo[d][1,3]dioxole-5-carboxamide], for which the IC50 was ≤ 10 nM.

`CCN1CCC(C2(C)Oc3c(-c4cnc(N(C)CC)nc4)cc(C(=O)NCc4c(SC)cc(C)[nH]c4=O)c(C)c3O2)CC1` (single isomer, unassigned) [Compound 84, 7-(2-(ethyl(methyl)amino)pyrimidin-5-yl)-2-(1-ethylpiperidin-4-yl)-2,4-dimethyl-N-((6-methyl-4-(methylthio)-2-oxo-1,2-dihydropyridin-3-yl)methyl)benzo[d][1,3]dioxole-5-carboxamide]: the IC50 was ≥ 100 nM.

Consider `CCN(C)c1ccc(-c2cc(C(=O)NCc3c(SC)cc(C)[nH]c3=O)c(C)c3c2OC(C)(C2CCN(CC(F)(F)F)CC2)O3)cn1` (single isomer, unassigned) [Compound 86, 7-(6-(ethyl(methyl)amino)pyridin-3-yl)-2,4-dimethyl-N-((6-methyl-4-(methylthio)-2-oxo-1,2-dihydropyridin-3-yl)methyl)-2-(1-(2,2,2-trifluoroethyl)piperidin-4-yl)benzo[d][1,3]dioxole-5-carboxamide], for which the IC50 (Homo sapiens, Pfeiffer, 264 h) is ≤ 10 nM.
